# Measurements as given in BindingDB's records for doi:10.1021/jm970373j (Parke-Davis Pharmaceutical Research, 1998).
# Target: Gastrin/cholecystokinin type B receptor (Cavia porcellus)
# Assay: Compound was evaluated for functional activity on Cholecystokinin type B receptor (CCK-B) receptor carried out on guinea pig stomach cells.
row,SMILES,IC50
1,"CC(C)Oc1cccc(-n2c(NNC(=O)Nc3ccc(Br)cc3)nc3ccccc3c2=O)c1 [N-(4-Bromophenyl)-2-[3,4-dihydro-3-[3-(1-methylethoxy)phenyl]-4-oxo-2-quinazolinyl]hydrazinecarboxamide]",54 nM
2,"CCOC(=O)c1cccc(NC(=O)NNc2nc3ccccc3c(=O)n2-c2cccc(OC(C)C)c2)c1 [N-(3-ethylesterbenzoicacid)-2-[3,4-dihydro-3-[(3-Isopropoxy)phenyl]-4-oxo-2-quinazolinyl]hydrazinecarboxamide]",22 nM
3,"CCOC(=O)c1cccc(NC(=O)NNc2nc3ccccc3c(=O)n2-c2ccc(Cl)cc2)c1 [N-(3-ethylesterbenzoicacid)-2-[3,4-dihydro-3-[(4-chloro)-phenyl]-4-oxo-2-quinazolinyl]hydrazinecarboxamide]",33 nM
